Reference: ChEMBL document CHEMBL6120973 (J Med Chem, 2024)

What was measured:
[1] = Selectivity index, ratio of CC50 for human MT4 cells to EC50 for wild type HIV-1 IIIB infected in human MT4 cellS
[2] = system: Human immunodeficiency virus 1; assay: Antiviral activity against wildtype HIV-1 IIIB infected in human MT4 cells assessed as protection against virus-induced cytopathic effect incubated for 5 days by MTT assay; type: functional, organism-based; conditions: Human immunodeficiency virus 1, IIIB, MT4, 120 h
[3] = Cytotoxicity against human MT4 cells assessed as reduction in cell viability measured after 5 days by MTT assay; conditions: MT4 cells
[4] = target: Human immunodeficiency virus type 1 reverse transcriptase (Human immunodeficiency virus 1, UniProt Q72547); assay: Inhibition of recombinant wild type HIV-1 Reverse transcriptase incubated for 40 mins by Pico-green reagent based fluorescence analysis
[5] = system: Human immunodeficiency virus 1; assay: Antiviral activity against HIV-1 harboring RT E138K mutant infected in human MT4 cells assessed as protection against virus-induced cytopathic effect incubated for 5 days by MTT assay; type: functional, organism-based; conditions: Human immunodeficiency virus 1, MT4, 120 h
[6] = system: Human immunodeficiency virus 1; assay: Antiviral activity against HIV-1 harboring RT K103N mutant infected in human MT4 cells assessed as protection against virus-induced cytopathic effect incubated for 5 days by MTT assay; type: functional, organism-based; conditions: Human immunodeficiency virus 1, MT4, 120 h
[7] = system: Human immunodeficiency virus 1; assay: Antiviral activity against HIV-1 harboring RT Y188L mutant infected in human MT4 cells assessed as protection against virus-induced cytopathic effect incubated for 5 days by MTT assay; type: functional, organism-based; conditions: Human immunodeficiency virus 1, MT4, 120 h
[8] = system: Human immunodeficiency virus 1; assay: Antiviral activity against HIV-1 harboring RT F227L/V106A double mutant infected in human MT4 cells assessed as protection against virus-induced cytopathic effect incubated for 5 days by MTT assay; type: functional, organism-based; conditions: Human immunodeficiency virus 1, MT4, 120 h
[9] = system: Human immunodeficiency virus 1; assay: Antiviral activity against HIV-1 harboring RT Y181C mutant infected in human MT4 cells assessed as protection against virus-induced cytopathic effect incubated for 5 days by MTT assay; type: functional, organism-based; conditions: Human immunodeficiency virus 1, MT4, 120 h
[10] = system: Human immunodeficiency virus 1; assay: Antiviral activity against HIV-1 harboring RT K103N/Y181C double mutant infected in human MT4 cells assessed as protection against virus-induced cytopathic effect incubated for 5 days by MTT assay; type: functional, organism-based; conditions: Human immunodeficiency virus 1, MT4, 120 h
[11] = system: Human immunodeficiency virus 1; assay: Antiviral activity against HIV-1 harboring RT L100I mutant infected in human MT4 cells assessed as protection against virus-induced cytopathic effect incubated for 5 days by MTT assay; type: functional, organism-based; conditions: Human immunodeficiency virus 1, MT4, 120 h

| SMILES | selectivity ratio ([1]; MT4 cells) | EC50 [2] [µM] | CC50 at 120 h [3] [µM] | other results |
| --- | --- | --- | --- | --- |
| Cc1cc(-c2cnc(Nc3ccc(C#N)cc3)nc2Nc2c(F)cc(-c3ccncc3)cc2F)cc(C)n1 | 984 | 0.1 | 97.9 |  |
| N#Cc1ccc(Nc2ncc(-c3cncc(Cl)c3)c(Nc3c(F)cc(-c4ccncc4)cc3F)n2)cc1 | 9340 | 0.017 | 159 |  |
| N#Cc1ccc(Nc2ncc(-c3ccsc3)c(Nc3c(F)cc(-c4ccncc4)cc3F)n2)cc1 | 10100 | 0.007 | 72.1 | IC50 [4]: 0.073 µM |
| Cc1ccc(-c2cnc(Nc3ccc(C#N)cc3)nc2Nc2c(F)cc(-c3ccncc3)cc2F)cn1 | 7300 | 0.027 | 194 |  |
| Cc1cn([C@H]2C[C@H](N=[N+]=[N-])[C@@H](CO)O2)c(=O)[nH]c1=O [ZIDOVUDINE] |  | 0.026 | > 248 | selectivity ratio ([1]; mt4): > 9710; EC50 [5]: 0.03 µM; EC50 [6]: 0.025 µM; EC50 [7]: 0.033 µM; EC50 [8]: 0.028 µM; EC50 [9]: 0.037 µM |
| Cc1cc(-c2ccncc2)cc(C)c1Nc1nc(Nc2ccc(C#N)cc2)ncc1-c1ccc(N(C)C)nc1 | > 350 | 0.112 | > 39 |  |
| Cc1cc(-c2cnc(Nc3ccc(C#N)cc3)nc2Nc2c(C)cc(-c3ccncc3)cc2C)cnc1Cl | > 5560 | 0.043 | > 242 |  |
| N#Cc1ccc(Nc2ncc(-c3ccc(F)nc3)c(Nc3c(F)cc(-c4ccncc4)cc3F)n2)cc1 | 18500 | 0.009 | 167 |  |
| Cc1cc(-c2cnc(Nc3ccc(C#N)cc3)nc2Nc2c(C)cc(-c3ccncc3)cc2C)cnc1F | > 7640 | 0.033 | > 249 |  |
| Cn1c(Cn2ccc(C(F)(F)F)c(Oc3cc(Cl)cc(C#N)c3)c2=O)n[nH]c1=O [DORAVIRINE] |  |  |  | IC50 [4]: 0.033 µM |
| N#Cc1ccc(Nc2ncc(-c3ccc(Cl)nc3)c(Nc3c(F)cc(-c4ccncc4)cc3F)n2)cc1 | 19100 | 0.01 | 196 |  |
| Cc1cc(-c2ccncc2)cc(C)c1Nc1nc(Nc2ccc(C#N)cc2)ncc1-c1ccc(C(F)(F)F)nc1 | > 822 | 0.045 | > 3720 |  |
| N#Cc1ccc(Nc2ncc(-c3cccs3)c(Nc3c(F)cc(-c4ccncc4)cc3F)n2)cc1 | 2170 | 0.011 | 23.4 | IC50 [4]: 0.105 µM |
| Cc1cc(-c2cnc(Nc3ccc(C#N)cc3)nc2Nc2c(C)cc(-c3ccncc3)cc2C)cc(C)n1 | 563 | 0.064 | 36.1 |  |
| Cc1cncc(-c2cnc(Nc3ccc(C#N)cc3)nc2Nc2c(F)cc(-c3ccncc3)cc2F)c1 | 2540 | 0.041 | 104 |  |
| Cc1cncc(-c2cnc(Nc3ccc(C#N)cc3)nc2Nc2c(C)cc(-c3ccncc3)cc2C)c1 | 656 | 0.018 | 11.5 |  |
| N#Cc1ccc(Nc2ncc(-c3ccnc(Cl)c3)c(Nc3c(F)cc(-c4ccncc4)cc3F)n2)cc1 | 14100 | 0.007 | 103 | IC50 [4]: 0.138 µM |
| COc1ccc(-c2cnc(Nc3ccc(C#N)cc3)nc2Nc2c(F)cc(-c3ccncc3)cc2F)cn1 | 6430 | 0.026 | 169 |  |
| N#Cc1ccc(Nc2ncc(-c3cccnc3)c(Nc3c(F)cc(-c4ccncc4)cc3F)n2)cc1 | > 2250 | 0.019 | > 41.9 |  |

| SMILES | selectivity ratio ([1]; MT4 cells) | EC50 [2] [µM] | CC50 at 120 h [3] [µM] | other results |
| --- | --- | --- | --- | --- |
| Cc1cc(-c2ccncc2)cc(C)c1Nc1nc(Nc2ccc(C#N)cc2)ncc1-c1ccc(Cl)nc1 | 3990 | 0.001 | 3.98 | IC50 [4]: 0.175 µM |
| COc1ncc(-c2cnc(Nc3ccc(C#N)cc3)nc2Nc2c(F)cc(-c3ccncc3)cc2F)cc1F | > 4810 | 0.049 | > 238 |  |
| COc1ncc(-c2cnc(Nc3ccc(C#N)cc3)nc2Nc2c(F)cc(-c3ccncc3)cc2F)cc1N | 4930 | 0.044 | 215 |  |
| COc1ncc(-c2cnc(Nc3ccc(C#N)cc3)nc2Nc2c(C)cc(-c3ccncc3)cc2C)cc1N | 11300 | 0.007 | 81.1 | EC50 [5]: 0.014 µM; EC50 [6]: 0.01 µM; EC50 [7]: 0.066 µM; EC50 [10]: 0.114 µM; EC50 [8]: 1.1 µM; EC50 [11]: 0.048 µM; EC50 [9]: 0.031 µM |
| O=C1Nc2ccc(Cl)cc2[C@@](C#CC2CC2)(C(F)(F)F)O1 [EFAVIRENZ] |  | 0.045 | > 7.49 | EC50 [6]: 0.059 µM; EC50 [8]: 0.181 µM; EC50 [11]: 0.024 µM; EC50 [9]: 0.006 µM |
| COc1cc(-c2cnc(Nc3ccc(C#N)cc3)nc2Nc2c(F)cc(-c3ccncc3)cc2F)ccn1 | > 12400 | 0.02 | > 246 |  |
| N#Cc1ccc(Nc2ncc(-c3ccnc(F)c3)c(Nc3c(F)cc(-c4ccncc4)cc3F)n2)cc1 | 12300 | 0.01 | 121 | IC50 [4]: 0.127 µM |
| CN(C)c1ccc(-c2cnc(Nc3ccc(C#N)cc3)nc2Nc2c(F)cc(-c3ccncc3)cc2F)cn1 | 714 | 0.074 | 52.9 |  |
| N#Cc1ccc(Nc2ncc(-c3cncc(N)c3)c(Nc3c(F)cc(-c4ccncc4)cc3F)n2)cc1 | 2380 | 0.07 | 167 |  |
| N#Cc1ccc(Nc2ncc(-c3ccco3)c(Nc3c(F)cc(-c4ccncc4)cc3F)n2)cc1 | > 6300 | 0.007 | > 42.9 | IC50 [4]: 0.077 µM |
| Cc1cc(-c2cnc(Nc3ccc(C#N)cc3)nc2Nc2c(F)cc(-c3ccncc3)cc2F)cnc1F | > 9800 | 0.025 | > 246 |  |
| Cc1cc(-c2ccncc2)cc(C)c1Nc1nc(Nc2ccc(C#N)cc2)ncc1-c1cncc(F)c1 | > 6000 | 0.043 | > 257 |  |
| Cc1ccnc2c1NC(=O)c1cccnc1N2C1CC1 [NEVIRAPINE] |  |  | > 15 | EC50 [5]: 0.142 µM; EC50 [7]: > 10 µM; EC50 [10]: > 10 µM; EC50 [8]: > 10 µM; EC50 [11]: 1.79 µM |
| Cc1cc(-c2cnc(Nc3ccc(C#N)cc3)nc2Nc2c(F)cc(-c3ccncc3)cc2F)cnc1Cl | > 1560 | 0.153 | > 238 |  |
| COc1ccc(-c2cnc(Nc3ccc(C#N)cc3)nc2Nc2c(C)cc(-c3ccncc3)cc2C)cn1 | > 3270 | 0.077 | > 250 |  |
| N#Cc1ccc(Nc2ncc(-c3cncc(F)c3)c(Nc3c(F)cc(-c4ccncc4)cc3F)n2)cc1 | 9400 | 0.017 | 156 |  |
| N#Cc1ccc(Nc2ncc(-c3ccc(N)nc3)c(Nc3c(F)cc(-c4ccncc4)cc3F)n2)cc1 | 5790 | 0.025 | 143 |  |
| N#Cc1ccc(Nc2ncc(-c3ccncc3)c(Nc3c(F)cc(-c4ccncc4)cc3F)n2)cc1 | > 4360 | 0.01 | > 41.9 |  |
| Cc1cc(-c2cnc(Nc3ccc(C#N)cc3)nc2Nc2c(F)cc(-c3ccncc3)cc2F)ccn1 | 8090 | 0.02 | 162 |  |
